Assay results as given in the supplement of paper PMC10307832.

What was measured:
Experiment in all cases: relative viability (nuclei count vs DMSO), 5 days (fraction); higher = more cells survive
RERF-LC-KJ = test system: RERF-LC-KJ
Method in brief: (§1)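 Relative viability was taken as the ratio of nuclei in treated wells to nuclei in vehicle wells. Lung cancer cell lines in 1536-well plates received compounds by pin tool one day after seeding, either one drug alone or a fixed anchor-drug dose plus five library-drug doses (not always all listed) in √10 steps. Nuclei were counted on 4× images after 5 days of treatment, and values are medians of duplicate plates.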

CAL-12T = test system: CAL-12T
Method in brief: as §1

NCI-H2405 = test system: NCI-H2405
Method in brief: as §1

LXF-289 = test system: LXF-289
Method in brief: as §1

HCC-827 = test system: HCC-827
Method in brief: as §1

NCI-H2228 = test system: NCI-H2228
Method in brief: as §1

NCI-H647 = test system: NCI-H647
Method in brief: as §1

NCI-H1395 = test system: NCI-H1395
Method in brief: as §1

NCI-H322M = test system: NCI-H322M
Method in brief: as §1

HOP-62 = test system: HOP-62
Method in brief: as §1

HCC-44 = test system: HCC-44
Method in brief: as §1

NCI-H1793 = test system: NCI-H1793
Method in brief: as §1

NCI-H1944 = test system: NCI-H1944
Method in brief: as §1

LCLC-97TM1 = test system: LCLC-97TM1
Method in brief: as §1

NCI-H3122 = test system: NCI-H3122
Method in brief: as §1

NCI-H2087 = test system: NCI-H2087
Method in brief: as §1

LCLC-103H = test system: LCLC-103H
Method in brief: as §1

NCI-H1437 = test system: NCI-H1437
Method in brief: as §1

SK-LU-1 = test system: SK-LU-1
Method in brief: as §1

201T = test system: 201T
Method in brief: as §1

BEN = test system: BEN
Method in brief: as §1

NCI-H727 = test system: NCI-H727
Method in brief: as §1

With NC(=O)Nc1cc(-c2cccc(F)c2)sc1C(=O)N[C@H]1CCCNC1 [AZD7762] + C[C@]1(O)C[C@@H](c2nc(-c3ccc4ccc(-c5ccccc5)nc4c3)c3c(N)nccn32)C1 [Linsitinib] (partner 1 µM) as the compound, how does the relative viability (RERF-LC-KJ; first compound 0.01 µM) read?
The relative viability was 0.923.

And the relative viability (RERF-LC-KJ; first compound 0.03162 µM)?
Its relative viability is 0.879.

And the relative viability (RERF-LC-KJ; first compound 0.1 µM)?
Its relative viability is 0.849.

And the relative viability (RERF-LC-KJ; first compound 0.3162 µM)?
The relative viability was 0.908.

What about the relative viability (RERF-LC-KJ; first compound 1 µM) of the same compound?
Its relative viability is 0.842.

What about the relative viability (CAL-12T; first compound 0.01 µM) of the same compound?
The relative viability was 0.91.

And the relative viability (CAL-12T; first compound 0.03162 µM)?
Its relative viability is 0.725.

What about the relative viability (CAL-12T; first compound 0.1 µM) of the same compound?
The relative viability was 0.984.

And the relative viability (CAL-12T; first compound 0.3162 µM)?
The relative viability was 0.844.

And the relative viability (CAL-12T; first compound 1 µM)?
The relative viability was 0.288.

And the relative viability (NCI-H2405; first compound 0.01 µM)?
The relative viability was 1.

What about the relative viability (NCI-H2405; first compound 0.03162 µM) of the same compound?
The relative viability was 0.929.

And the relative viability (NCI-H2405; first compound 0.1 µM)?
The relative viability was 0.86.

And the relative viability (NCI-H2405; first compound 0.3162 µM)?
The relative viability was 0.655.

What about the relative viability (NCI-H2405; first compound 1 µM) of the same compound?
The relative viability was 0.402.

And the relative viability (LXF-289; first compound 0.01 µM)?
Its relative viability is 0.957.

What about the relative viability (LXF-289; first compound 0.03162 µM) of the same compound?
Its relative viability is 0.938.

What about the relative viability (LXF-289; first compound 0.1 µM) of the same compound?
Its relative viability is 1.01.

And the relative viability (LXF-289; first compound 0.3162 µM)?
Its relative viability is 1.03.

And the relative viability (LXF-289; first compound 1 µM)?
Its relative viability is 1.06.

And the relative viability (HCC-827; first compound 0.01 µM)?
The relative viability was 1.06.

And the relative viability (HCC-827; first compound 0.03162 µM)?
Its relative viability is 0.994.

What about the relative viability (HCC-827; first compound 0.1 µM) of the same compound?
Its relative viability is 0.922.

And the relative viability (HCC-827; first compound 0.3162 µM)?
Its relative viability is 0.961.

And the relative viability (HCC-827; first compound 1 µM)?
Its relative viability is 0.863.

What about the relative viability (NCI-H2228; first compound 0.01 µM) of the same compound?
The relative viability was 0.792.

What about the relative viability (NCI-H2228; first compound 0.03162 µM) of the same compound?
Its relative viability is 0.478.

And the relative viability (NCI-H2228; first compound 0.1 µM)?
Its relative viability is 0.734.

And the relative viability (NCI-H2228; first compound 0.3162 µM)?
Its relative viability is 0.289.

What about the relative viability (NCI-H2228; first compound 1 µM) of the same compound?
Its relative viability is 0.242.

And the relative viability (NCI-H647; first compound 0.01 µM)?
Its relative viability is 1.37.

What about the relative viability (NCI-H647; first compound 0.03162 µM) of the same compound?
The relative viability was 1.3.

What about the relative viability (NCI-H647; first compound 0.1 µM) of the same compound?
Its relative viability is 1.05.

And the relative viability (NCI-H647; first compound 0.3162 µM)?
Its relative viability is 0.462.

And the relative viability (NCI-H647; first compound 1 µM)?
Its relative viability is 0.153.

And the relative viability (NCI-H1395; first compound 0.01 µM)?
Its relative viability is 1.16.

What about the relative viability (NCI-H1395; first compound 0.03162 µM) of the same compound?
The relative viability was 1.09.

What about the relative viability (NCI-H1395; first compound 0.1 µM) of the same compound?
The relative viability was 0.966.

And the relative viability (NCI-H1395; first compound 0.3162 µM)?
The relative viability was 0.579.

What about the relative viability (NCI-H1395; first compound 1 µM) of the same compound?
The relative viability was 0.481.

What about the relative viability (NCI-H322M; first compound 0.01 µM) of the same compound?
Its relative viability is 1.02.

And the relative viability (NCI-H322M; first compound 0.03162 µM)?
The relative viability was 1.03.

What about the relative viability (NCI-H322M; first compound 0.1 µM) of the same compound?
Its relative viability is 0.92.

What about the relative viability (NCI-H322M; first compound 0.3162 µM) of the same compound?
The relative viability was 0.987.

And the relative viability (NCI-H322M; first compound 1 µM)?
The relative viability was 0.84.

What about the relative viability (HOP-62; first compound 0.01 µM) of the same compound?
Its relative viability is 1.04.

And the relative viability (HOP-62; first compound 0.03162 µM)?
Its relative viability is 1.09.

And the relative viability (HOP-62; first compound 0.1 µM)?
Its relative viability is 1.32.

What about the relative viability (HOP-62; first compound 0.3162 µM) of the same compound?
Its relative viability is 0.891.

And the relative viability (HOP-62; first compound 1 µM)?
Its relative viability is 0.987.

What about the relative viability (HCC-44; first compound 0.01 µM) of the same compound?
The relative viability was 0.739.

What about the relative viability (HCC-44; first compound 0.03162 µM) of the same compound?
Its relative viability is 0.679.

And the relative viability (HCC-44; first compound 0.1 µM)?
The relative viability was 0.724.

And the relative viability (HCC-44; first compound 0.3162 µM)?
Its relative viability is 0.647.

What about the relative viability (HCC-44; first compound 1 µM) of the same compound?
The relative viability was 0.861.

And the relative viability (NCI-H1793; first compound 0.01 µM)?
The relative viability was 1.05.

What about the relative viability (NCI-H1793; first compound 0.03162 µM) of the same compound?
Its relative viability is 0.82.

What about the relative viability (NCI-H1793; first compound 0.1 µM) of the same compound?
The relative viability was 0.994.

And the relative viability (NCI-H1793; first compound 0.3162 µM)?
The relative viability was 0.801.

And the relative viability (NCI-H1793; first compound 1 µM)?
Its relative viability is 0.358.

What about the relative viability (NCI-H1944; first compound 0.01 µM) of the same compound?
Its relative viability is 1.19.

What about the relative viability (NCI-H1944; first compound 0.03162 µM) of the same compound?
Its relative viability is 1.26.

What about the relative viability (NCI-H1944; first compound 0.1 µM) of the same compound?
The relative viability was 1.35.

And the relative viability (NCI-H1944; first compound 0.3162 µM)?
The relative viability was 1.25.

What about the relative viability (NCI-H1944; first compound 1 µM) of the same compound?
The relative viability was 1.14.

And the relative viability (LCLC-97TM1; first compound 0.01 µM)?
Its relative viability is 0.179.

What about the relative viability (LCLC-97TM1; first compound 0.03162 µM) of the same compound?
The relative viability was 0.209.

What about the relative viability (LCLC-97TM1; first compound 0.1 µM) of the same compound?
Its relative viability is 0.214.

What about the relative viability (LCLC-97TM1; first compound 0.3162 µM) of the same compound?
Its relative viability is 0.26.

What about the relative viability (LCLC-97TM1; first compound 1 µM) of the same compound?
Its relative viability is 0.189.

And the relative viability (NCI-H3122; first compound 0.01 µM)?
The relative viability was 1.02.

And the relative viability (NCI-H3122; first compound 0.03162 µM)?
Its relative viability is 0.986.

What about the relative viability (NCI-H3122; first compound 0.1 µM) of the same compound?
Its relative viability is 1.05.

And the relative viability (NCI-H3122; first compound 0.3162 µM)?
Its relative viability is 0.868.

What about the relative viability (NCI-H3122; first compound 1 µM) of the same compound?
Its relative viability is 1.12.

What about the relative viability (NCI-H2087; first compound 0.01 µM) of the same compound?
Its relative viability is 0.995.

And the relative viability (NCI-H2087; first compound 0.03162 µM)?
The relative viability was 0.986.

What about the relative viability (NCI-H2087; first compound 0.1 µM) of the same compound?
Its relative viability is 1.07.

What about the relative viability (NCI-H2087; first compound 0.3162 µM) of the same compound?
The relative viability was 1.03.

And the relative viability (NCI-H2087; first compound 1 µM)?
The relative viability was 1.17.

And the relative viability (LCLC-103H; first compound 0.01 µM)?
Its relative viability is 1.1.

What about the relative viability (LCLC-103H; first compound 0.03162 µM) of the same compound?
The relative viability was 1.09.

And the relative viability (LCLC-103H; first compound 0.1 µM)?
The relative viability was 0.997.

And the relative viability (LCLC-103H; first compound 0.3162 µM)?
The relative viability was 1.11.

What about the relative viability (LCLC-103H; first compound 1 µM) of the same compound?
The relative viability was 0.738.

What about the relative viability (NCI-H1437; first compound 0.01 µM) of the same compound?
Its relative viability is 1.06.

And the relative viability (NCI-H1437; first compound 0.03162 µM)?
Its relative viability is 0.991.

What about the relative viability (NCI-H1437; first compound 0.1 µM) of the same compound?
The relative viability was 0.982.

And the relative viability (NCI-H1437; first compound 0.3162 µM)?
Its relative viability is 1.04.

What about the relative viability (NCI-H1437; first compound 1 µM) of the same compound?
The relative viability was 0.86.

What about the relative viability (SK-LU-1; first compound 0.01 µM) of the same compound?
The relative viability was 1.1.

What about the relative viability (SK-LU-1; first compound 0.03162 µM) of the same compound?
Its relative viability is 0.804.

What about the relative viability (SK-LU-1; first compound 0.1 µM) of the same compound?
Its relative viability is 0.358.

What about the relative viability (SK-LU-1; first compound 0.3162 µM) of the same compound?
The relative viability was 0.218.

What about the relative viability (SK-LU-1; first compound 1 µM) of the same compound?
The relative viability was 0.251.

And the relative viability (201T; first compound 0.01 µM)?
Its relative viability is 1.04.

And the relative viability (201T; first compound 0.03162 µM)?
Its relative viability is 1.06.

What about the relative viability (201T; first compound 0.1 µM) of the same compound?
Its relative viability is 1.1.

And the relative viability (201T; first compound 0.3162 µM)?
The relative viability was 1.09.

What about the relative viability (201T; first compound 1 µM) of the same compound?
Its relative viability is 0.969.

What about the relative viability (BEN; first compound 0.01 µM) of the same compound?
Its relative viability is 1.04.

And the relative viability (BEN; first compound 0.03162 µM)?
The relative viability was 0.892.

What about the relative viability (BEN; first compound 0.1 µM) of the same compound?
The relative viability was 0.797.

And the relative viability (BEN; first compound 0.3162 µM)?
The relative viability was 0.829.

And the relative viability (BEN; first compound 1 µM)?
Its relative viability is 0.643.

What about the relative viability (NCI-H727; first compound 0.01 µM) of the same compound?
The relative viability was 0.282.

What about the relative viability (NCI-H727; first compound 0.03162 µM) of the same compound?
The relative viability was 0.333.

What about the relative viability (NCI-H727; first compound 0.1 µM) of the same compound?
Its relative viability is 0.311.

And the relative viability (NCI-H727; first compound 0.3162 µM)?
Its relative viability is 0.219.

What about the relative viability (NCI-H727; first compound 1 µM) of the same compound?
The relative viability was 0.118.
